pKd: −log10 of the molar value. Converted amounts (≈) assume the structure as drawn. Blank lines part the entries; values can stand above or below the compound they belong to. The source made the active and inactive calls. The rule behind the calls is not given here.
Columns and labels:
[1] = Binding affinity to GTGAGCCTA oligonucleotide DNA sequence (unknown origin) at 50 nM incubated for 16 hrs by PCR based Bind-n-Seq analysis
[2] = Binding affinity to AATTTACCT oligonucleotide DNA sequence (unknown origin) at 50 nM incubated for 16 hrs by PCR based Bind-n-Seq analysis
[3] = Binding affinity to GGGCTAGAC oligonucleotide DNA sequence (unknown origin) at 50 nM incubated for 16 hrs by PCR based Bind-n-Seq analysis
[4] = Binding affinity to ATCGGCAGA oligonucleotide DNA sequence (unknown origin) at 50 nM incubated for 16 hrs by PCR based Bind-n-Seq analysis
[5] = Binding affinity to GTCTCCGAA oligonucleotide DNA sequence (unknown origin) at 50 nM incubated for 16 hrs by PCR based Bind-n-Seq analysis
[6] = Binding affinity to ACAGCCTCG oligonucleotide DNA sequence (unknown origin) at 50 nM incubated for 16 hrs by PCR based Bind-n-Seq analysis
[7] = Binding affinity to GAGTCTCCC oligonucleotide DNA sequence (unknown origin) at 50 nM incubated for 16 hrs by PCR based Bind-n-Seq analysis
[8] = Binding affinity to GGGCAGTCA oligonucleotide DNA sequence (unknown origin) at 50 nM incubated for 16 hrs by PCR based Bind-n-Seq analysis
[9] = Binding affinity to CTCTCTGCA oligonucleotide DNA sequence (unknown origin) at 50 nM incubated for 16 hrs by PCR based Bind-n-Seq analysis
[10] = Binding affinity to AGGCTCTCA oligonucleotide DNA sequence (unknown origin) at 50 nM incubated for 16 hrs by PCR based Bind-n-Seq analysis
[11] = Drug uptake in human MDA-MB-231 cell nucleus at 10 uM after 72 hrs by FITC/Hoechst 33342-staining based confocal microscopic analysis; format: ADME; conditions: mda-mb-231, 72 h
[12] = Binding affinity to 5'-biotin labeled GCGAGGCAGACACGCTTTTGCGTGTCTGCCTCGC-3' DNA (unknown origin) assessed as association rate by SPR analysis
[13] = Binding affinity to 5'-biotin labeled GCGAGGCAGACACGCTTTTGCGTGTCTGCCTCGC-3' DNA (unknown origin) by SPR analysis
[14] = Binding affinity to 5'-biotin labeled GCGAGGCAGACACGCTTTTGCGTGTCTGCCTCGC-3' DNA (unknown origin) assessed as dissociation rate by SPR analysis
[15] = Aqueous solubility of the compound […] assessed as saturation concentration by nanodrop analysis; format: physicochemical
[16] = Binding affinity to AGGCTGATA oligonucleotide DNA sequence (unknown origin) at 50 nM incubated for 16 hrs by PCR based Bind-n-Seq analysis
[17] = Binding affinity to AGACTGACA oligonucleotide DNA sequence (unknown origin) at 50 nM incubated for 16 hrs by PCR based Bind-n-Seq analysis
[18] = Binding affinity to TGGCTAACA oligonucleotide DNA sequence (unknown origin) at 50 nM incubated for 16 hrs by PCR based Bind-n-Seq analysis
[19] = Binding affinity to ATGCAGACA oligonucleotide DNA sequence (unknown origin) at 50 nM incubated for 16 hrs by PCR based Bind-n-Seq analysis
[20] = Binding affinity to AGGCAGACA oligonucleotide DNA sequence (unknown origin) at 50 nM incubated for 16 hrs by PCR based Bind-n-Seq analysis
[21] = Binding affinity to AGACAGTCA oligonucleotide DNA sequence (unknown origin) at 50 nM incubated for 16 hrs by PCR based Bind-n-Seq analysis
[22] = Binding affinity to ATGCAGTCA oligonucleotide DNA sequence (unknown origin) at 50 nM incubated for 16 hrs by PCR based Bind-n-Seq analysis
[23] = Binding affinity to AGGCTTACA oligonucleotide DNA sequence (unknown origin) at 50 nM incubated for 16 hrs by PCR based Bind-n-Seq analysis
[24] = Binding affinity to TGGTAGACA oligonucleotide DNA sequence (unknown origin) at 50 nM incubated for 16 hrs by PCR based Bind-n-Seq analysis
[25] = Binding affinity to CGGCTAACA oligonucleotide DNA sequence (unknown origin) at 50 nM incubated for 16 hrs by PCR based Bind-n-Seq analysis
[26] = Binding affinity to TAGTCGGCC oligonucleotide DNA sequence (unknown origin) at 50 nM incubated for 16 hrs by PCR based Bind-n-Seq analysis
[27] = Binding affinity to AGTCTGCCT oligonucleotide DNA sequence (unknown origin) at 50 nM incubated for 16 hrs by PCR based Bind-n-Seq analysis
[28] = Binding affinity to ATGTCTGCC oligonucleotide DNA sequence (unknown origin) at 50 nM incubated for 16 hrs by PCR based Bind-n-Seq analysis
[29] = Binding affinity to TTGTCGGCC oligonucleotide DNA sequence (unknown origin) at 50 nM incubated for 16 hrs by PCR based Bind-n-Seq analysis
[30] = Binding affinity to AGTCGGCCT oligonucleotide DNA sequence (unknown origin) at 50 nM incubated for 16 hrs by PCR based Bind-n-Seq analysis
[31] = Binding affinity to TGGCAGACT oligonucleotide DNA sequence (unknown origin) at 50 nM incubated for 16 hrs by PCR based Bind-n-Seq analysis
[32] = Binding affinity to TGGCAGACA oligonucleotide DNA sequence (unknown origin) at 50 nM incubated for 16 hrs by PCR based Bind-n-Seq analysis
[33] = Binding affinity to AGGCAGACT oligonucleotide DNA sequence (unknown origin) at 50 nM incubated for 16 hrs by PCR based Bind-n-Seq analysis
[34] = Binding affinity to AGTCAGCCT oligonucleotide DNA sequence (unknown origin) at 50 nM incubated for 16 hrs by PCR based Bind-n-Seq analysis
[35] = Binding affinity to TGTCAGCCT oligonucleotide DNA sequence (unknown origin) at 50 nM incubated for 16 hrs by PCR based Bind-n-Seq analysis

Structure (SMILES): CC(=O)Nc1cn(C)c(C(=O)Nc2cn(C)c(C(=O)NCCC(=O)NCCC(=O)Nc3cn(C)c(C(=O)Nc4cc(C(=O)Nc5cc(C(=O)NCCCC(=O)Nc6cn(C)c(C(=O)Nc7cc(C(=O)Nc8cc(C(=O)NCCC(=O)Nc9cn(C)c(C(=O)Nc%10cc(C(=O)Nc%11cc(C(=O)NCCC(=O)NCCCN(C)CCCNC(=O)CCOCCOCCOCCOCCOCCOCCOCCOCCOCCOCCOCCOCCNC(=O)CCCC[C@@H]%12SC[C@@H]%13NC(=O)N[C@@H]%13%12)n(C)c%11)n(C)c%10)n9)n(C)c8)n(C)c7)n6)n(C)c5)n(C)c4)n3)n2)n1
Activity [1]: Active
Activity [2]: Active
Activity [3]: Active
Activity [4]: Active
Activity [5]: Active
Activity [6]: Active
Activity [7]: Active
Activity [8]: Active
Activity [9]: Active
Activity [10]: Active

Structure (SMILES): CC(=O)Nc1cn(C)c(C(=O)Nc2cn(C)c(C(=O)Nc3cc(C(=O)NCCC(=O)Nc4cn(C)c(C(=O)Nc5cc(C(=O)Nc6cc(C(=O)NCCCC(=O)Nc7cn(C)c(C(=O)Nc8cc(C(=O)Nc9cc(C(=O)NCCC(=O)Nc%10cn(C)c(C(=O)Nc%11cc(C(=O)Nc%12cc(C(=O)NCCC(=O)NCCCN(C)CCCNC(=S)Nc%13ccc%14c(c%13)C(=O)OC%14%13c%14ccc(O)cc%14Oc%14cc(O)ccc%14%13)n(C)c%12)n(C)c%11)n%10)n(C)c9)n(C)c8)n7)n(C)c6)n(C)c5)n4)n(C)c3)n2)n1
Drug uptake [11]: Active

Structure (SMILES): CC(=O)Nc1cn(C)c(C(=O)Nc2cn(C)c(C(=O)NCCOCCOCC(=O)Nc3cn(C)c(C(=O)Nc4cc(C(=O)Nc5cc(C(=O)NCCCC(=O)Nc6cn(C)c(C(=O)Nc7cc(C(=O)NCCOCCOCC(=O)Nc8cn(C)c(C(=O)Nc9cc(C(=O)Nc%10cc(C(=O)NCCC(=O)NCCCN(C)CCCNC(=S)Nc%11ccc%12c(c%11)C(=O)OC%12%11c%12ccc(O)cc%12Oc%12cc(O)ccc%12%11)n(C)c%10)n(C)c9)n8)n(C)c7)n6)n(C)c5)n(C)c4)n3)n2)n1
Drug uptake [11]: Active

Structure (SMILES): CC(=O)Nc1cn(C)c(C(=O)Nc2cn(C)c(C(=O)Nc3cc(C(=O)NCCC(=O)Nc4cn(C)c(C(=O)Nc5cc(C(=O)Nc6cc(C(=O)NCCCC(=O)Nc7cn(C)c(C(=O)Nc8cc(C(=O)Nc9cc(C(=O)NCCC(=O)Nc%10cn(C)c(C(=O)Nc%11cc(C(=O)Nc%12cc(C(=O)NCCC(=O)NCCCN(C)CCCNC(=O)CCOCCOCCOCCOCCOCCOCCOCCOCCOCCOCCOCCOCCNC(=O)CCCC[C@@H]%13SC[C@@H]%14NC(=O)N[C@@H]%14%13)n(C)c%12)n(C)c%11)n%10)n(C)c9)n(C)c8)n7)n(C)c6)n(C)c5)n4)n(C)c3)n2)n1
Activity [16]: Active
Activity [17]: Active
Activity [18]: Active
Activity [19]: Active
Activity [20]: Active
Activity [21]: Active
Activity [22]: Active
Activity [23]: Active
Activity [24]: Active
Activity [25]: Active

Structure (SMILES): CC(=O)Nc1cn(C)c(C(=O)Nc2cn(C)c(C(=O)NCCOCCOCC(=O)Nc3cn(C)c(C(=O)Nc4cc(C(=O)Nc5cc(C(=O)NCCCC(=O)Nc6cn(C)c(C(=O)Nc7cc(C(=O)NCCOCCOCC(=O)Nc8cn(C)c(C(=O)Nc9cc(C(=O)Nc%10cc(C(=O)NCCC(=O)NCCCN(C)CCCNC(=O)CCOCCOCCOCCOCCOCCOCCOCCOCCOCCOCCOCCOCCNC(=O)CCCC[C@@H]%11SC[C@@H]%12NC(=O)N[C@@H]%12%11)n(C)c%10)n(C)c9)n8)n(C)c7)n6)n(C)c5)n(C)c4)n3)n2)n1
Activity [26]: Active
Activity [27]: Active
Activity [28]: Active
Activity [29]: Active
Activity [30]: Active
Activity [31]: Active
Activity [32]: Active
Activity [33]: Active
Activity [34]: Active
Activity [35]: Active

Structure (SMILES): CC(=O)Nc1cn(C)c(C(=O)Nc2cn(C)c(C(=O)NCCOCCOCC(=O)Nc3cn(C)c(C(=O)Nc4cc(C(=O)Nc5cc(C(=O)NCCCC(=O)Nc6cn(C)c(C(=O)Nc7cc(C(=O)NCCOCCOCC(=O)Nc8cn(C)c(C(=O)Nc9cc(C(=O)Nc%10cc(C(=O)NCCC(=O)NCCCN(C)CCCN)n(C)c%10)n(C)c9)n8)n(C)c7)n6)n(C)c5)n(C)c4)n3)n2)n1
Ka [12]: 1.8 ×10⁴ /Ms
pKd [13]: 7.80
Kd [14]: 3 ×10⁻⁴ /s
solubility [15]: 13.9 mM (≈ 25.9 mg/mL)

Structure (SMILES): CC(=O)Nc1cn(C)c(C(=O)Nc2cn(C)c(C(=O)NCCOCCOCC(=O)Nc3cn(C)c(C(=O)Nc4cc(C(=O)Nc5cc(C(=O)NCCCC(=O)Nc6cn(C)c(C(=O)Nc7cc(C(=O)Nc8cc(C(=O)NCCC(=O)Nc9cn(C)c(C(=O)Nc%10cc(C(=O)Nc%11cc(C(=O)NCCC(=O)NCCCN(C)CCCNC(=S)Nc%12ccc%13c(c%12)C(=O)OC%13%12c%13ccc(O)cc%13Oc%13cc(O)ccc%13%12)n(C)c%11)n(C)c%10)n9)n(C)c8)n(C)c7)n6)n(C)c5)n(C)c4)n3)n2)n1
Drug uptake [11]: Active

More lines, now with the values ahead:

Ka [12]: 1.3 ×10⁵ /Ms
pKd [13]: 7.82
Kd [14]: 1.9 ×10⁻³ /s
Structure (SMILES): CC(=O)Nc1cn(C)c(C(=O)Nc2cn(C)c(C(=O)NCCC(=O)NCCC(=O)Nc3cn(C)c(C(=O)Nc4cc(C(=O)Nc5cc(C(=O)NCCCC(=O)Nc6cn(C)c(C(=O)Nc7cc(C(=O)Nc8cc(C(=O)NCCC(=O)Nc9cn(C)c(C(=O)Nc%10cc(C(=O)Nc%11cc(C(=O)NCCC(=O)NCCCN(C)CCCN)n(C)c%11)n(C)c%10)n9)n(C)c8)n(C)c7)n6)n(C)c5)n(C)c4)n3)n2)n1

Ka [12]: 1 ×10⁴ /Ms
pKd [13]: 6.60
Kd [14]: 4.5 ×10⁻³ /s
Structure (SMILES): CC(=O)Nc1cn(C)c(C(=O)Nc2cn(C)c(C(=O)Nc3cc(C(=O)NCCC(=O)Nc4cn(C)c(C(=O)Nc5cc(C(=O)Nc6cc(C(=O)NCCCC(=O)Nc7cn(C)c(C(=O)Nc8cc(C(=O)NCCOCCOCC(=O)Nc9cn(C)c(C(=O)Nc%10cc(C(=O)Nc%11cc(C(=O)NCCC(=O)NCCCN(C)CCCN)n(C)c%11)n(C)c%10)n9)n(C)c8)n7)n(C)c6)n(C)c5)n4)n(C)c3)n2)n1

Ka [12]: 1 ×10⁵ /Ms
pKd [13]: 7.74
Kd [14]: 1.8 ×10⁻³ /s
solubility [15]: 12.2 mM (≈ 23.3 mg/mL)
Structure (SMILES): CC(=O)Nc1cn(C)c(C(=O)Nc2cn(C)c(C(=O)NCCOCCOCC(=O)Nc3cn(C)c(C(=O)Nc4cc(C(=O)Nc5cc(C(=O)NCCCC(=O)Nc6cn(C)c(C(=O)Nc7cc(C(=O)Nc8cc(C(=O)NCCC(=O)Nc9cn(C)c(C(=O)Nc%10cc(C(=O)Nc%11cc(C(=O)NCCC(=O)NCCCN(C)CCCN)n(C)c%11)n(C)c%10)n9)n(C)c8)n(C)c7)n6)n(C)c5)n(C)c4)n3)n2)n1

Ka [12]: 2.4 ×10⁵ /Ms
pKd [13]: 8.23
Kd [14]: 1.4 ×10⁻³ /s
solubility [15]: 9.1 mM (≈ 17.8 mg/mL)
Structure (SMILES): CC(=O)Nc1cn(C)c(C(=O)Nc2cn(C)c(C(=O)Nc3cc(C(=O)NCCC(=O)Nc4cn(C)c(C(=O)Nc5cc(C(=O)Nc6cc(C(=O)NCCCC(=O)Nc7cn(C)c(C(=O)Nc8cc(C(=O)Nc9cc(C(=O)NCCC(=O)Nc%10cn(C)c(C(=O)Nc%11cc(C(=O)Nc%12cc(C(=O)NCCC(=O)NCCCN(C)CCCN)n(C)c%12)n(C)c%11)n%10)n(C)c9)n(C)c8)n7)n(C)c6)n(C)c5)n4)n(C)c3)n2)n1
